Laboratory results: patent US20080146593A1, “Substituted 5-Phenyl Pyrimidines I In Therapy” (Basf Aktiengesellschaft, priority 2005, published 2008)

Tested on: HeLa cells
Assay: Measurement of the cell cycle inhibition in HeLa cells
Assay type: cell-based
Conditions: HeLa B cells, 20 h incubation with compound; FACS ratio G0/G1 to G2/M vs DMSO; concentration at which 50% of cells are in cell cycle arrest
Protocol: Measurement of the Cell Cycle Inhibition in HeLa Cells—Test Procedure:
HeLa B cells are grown in DMEM (Life Technologies Cat No 21969-035) supplemented with 10% Fetal Calf Serum (FCS, Life Technologies Cat No 10270-106) in 180 cm^2 Flasks at 37° C., 92% humidity and 7% CO2.
Cells are seeded at 5×10^4 cells per well in a 24-well plate. Twenty hours later the compounds are added such that the final concentration is 1×10^−6, 3.3×10^−7, 1.1×10^−7, 3.7×10^−8, 1.2×10^−8 and 1×10^−9 M in a final volume of 500 μl. DMSO alone is added to 6 wells as a control. Cells are incubated with the compounds as above for 20 h. Then cells are observed under the microscope to check for cell death, and the 24-well plate is then centrifuged at 1200 rpm for 5 min at 20° C., acceleration position 7 and break position 5 (Eppendorf centrifuge 5804R).
The supernatant is removed and the cells lysed with 0.5 ml RNase Buffer (10 mM NaCitrate, 0.1% Nonidet NP40, 50 μg/ml RNase, 10 μg/ml Propidium iodide) per well. The plates are then incubated for at least 30 min in the dark at RT and the samples then transferred to FACS tubes. Samples are measured in a FACS machine (Beckton Dickinson) at the following settings:
Instrument Settings of the FACS Calibur:
The ratio of cells in G0/G1-phase to G2/M phase is calculated and compared to the value for the controls (DMSO) only. Results are given in table 2 as the IC50 value calculated from the concentration curve plotted against the cell cycle ratio and indicate the compound concentration at which 50% of cells are in cell cycle arrest after treatment with the compound.

| SMILES | IC50 [nM] |
| --- | --- |
| CCN(CC)c1nc(-c2cnccn2)nc(Cl)c1-c1c(F)cc(F)cc1F [Example 26] | 38 |
| Cc1cc(C)n(-c2nc(Cl)c(-c3c(F)cc(F)cc3F)c(NC(C)C)n2)n1 [Example 21] | 25 |
| CCC(C)Nc1nc(ON=C(C)C)nc(Cl)c1-c1c(C)cccc1F (stereo not drawn) [Example 112] | 21 |
| CC[C@H](C)Nc1nc(C(N)=NO)nc(Cl)c1-c1ccc(F)cc1Cl [Example 168] | 36 |
| CON=C(N)c1nc(Cl)c(-c2c(F)cccc2F)c(N[C@@H](C)C(F)(F)F)n1 [Example 213] | 51 |
| C[C@H](Nc1nc(-n2ccc(-c3ccccc3)n2)nc(Cl)c1-c1c(F)cc(F)cc1F)C(F)(F)F [Example 4] | 41 |
| Cc1nc(C)n(-c2nc(Cl)c(-c3c(F)cccc3F)c(N3CCC(C)CC3)n2)n1 [Example 118] | 32 |
| C[C@H](Nc1nc(-n2cccn2)nc(Cl)c1-c1c(F)cc(F)cc1F)C(F)(F)F [Example 1] | 4.8 |
| C[C@H](Nc1nc(-n2ccc(C(F)(F)F)n2)nc(Cl)c1-c1c(F)cc(F)cc1F)C(F)(F)F [Example 6] | 17 |
| CON=C(N)c1nc(Cl)c(-c2c(F)cccc2Cl)c(N[C@@H](C)C(F)(F)F)n1 [Example 214] | 18 |
| CON=C(N)c1nc(Cl)c(-c2ccc(OC)cc2Cl)c(N[C@@H](C)C(C)C)n1 [Example 186] | 33 |
| CC(C)Nc1nc(-c2ccccn2)nc(Cl)c1-c1c(F)cc(F)cc1F [Example 2] | 48 |
| COc1cc(F)c(-c2c(Cl)nc(C(N)=NO)nc2N[C@@H](C)C(C)C)c(F)c1 [Example 191] | 12 |
| CC(C)[C@@H](C)Nc1nc(-n2cnc([N+](=O)[O-])n2)nc(Cl)c1-c1c(F)cc(F)cc1F [Example 89] | 47 |
| COc1cc(F)c(-c2c(Cl)nc(C(N)=O)nc2N[C@@H](C)C(F)(F)F)c(F)c1 [Example 189] | 30 |
| Fc1cc(F)c(-c2c(Cl)nc(-n3ccnn3)nc2N2CC=CCC2)c(F)c1 [Example 45] | 17 |
| CC(C)[C@@H](C)Nc1nc(-n2ccnn2)nc(Cl)c1-c1c(F)cccc1Cl [Example 50] | 9.1 |

| SMILES | IC50 [nM] |
| --- | --- |
| CON=C(N)c1nc(Cl)c(-c2c(F)cc(OC)cc2F)c(N[C@@H](C)C(C)C)n1 [Example 198] | 15 |
| CC1CCN(c2nc(-n3ccnn3)nc(Cl)c2-c2c(F)cccc2F)CC1 [Example 117] | 19 |
| C=CCCN(C)c1nc(-n2ccc(N)n2)nc(Cl)c1-c1c(F)cccc1Cl [Example 131] | 48 |
| CC(C)[C@H](C)Nc1nc(C(N)=NO)nc(Cl)c1-c1c(F)cc(F)cc1F [Example 145] | 23 |
| CC(C)[C@@H](C)Nc1nc(-n2cccn2)nc(Cl)c1-c1c(F)cccc1Cl [Example 46] | 38 |
| CON=C(N)c1nc(Cl)c(-c2ccc(F)cc2Cl)c(N[C@@H](C)C(C)C)n1 [Example 218] | 29 |
| CC1CCN(c2nc(-n3ccnn3)nc(Cl)c2-c2c(F)cccc2Cl)CC1 [Example 49] | 10 |
| C[C@H](Nc1nc(-n2cc(C#N)cn2)nc(Cl)c1-c1c(F)cc(F)cc1F)C(F)(F)F [Example 162] | 17 |
| CC1CCN(c2nc(-n3cncn3)nc(Cl)c2-c2c(F)cccc2F)CC1 [Example 116] | 42 |
| COc1cc(F)c(-c2c(Cl)nc(-n3cnc([N+](=O)[O-])n3)nc2N2CCC(C)CC2)c(F)c1 [Example 86] | 24 |
| CC(C)c1ccn(-c2nc(Cl)c(-c3c(F)cc(F)cc3F)c(N[C@@H](C)C(F)(F)F)n2)n1 [Example 5] | 4.6 |
| CCC(C)Nc1nc(-n2cc(C#N)cn2)nc(Cl)c1-c1c(F)cccc1Cl (stereo not drawn) [Example 163] | 30 |
| CC(C)[C@H](C)Nc1nc(C(N)=NO)nc(Cl)c1-c1ccc(F)cc1Cl [Example 193] | 9 |
| CC1CCN(c2nc(C(N)=NO)nc(Cl)c2-c2c(F)cc(F)cc2F)CC1 [Example 58] | 26 |
| CC(C)=NOc1nc(Cl)c(-c2c(F)cc(F)cc2F)c(N[C@@H](C)C(F)(F)F)n1 [Example 204] | 23 |
| Cc1nc(-n2cncn2)nc(N2CCC(C)CC2)c1-c1c(F)cc(F)cc1F [Example 93] | 39 |
